# Results as given in ChEMBL document CHEMBL3124761, “Synthesis and biological evaluation of N,N'-squaramides with high in vivo efficacy and low toxicity: toward a low-cost drug against Chagas disease” (J Med Chem, 2014).
# The source made the active and inactive calls. No cut-off for these calls is given here.
# Legend:
# Mus musculus [1] = assay: Toxicity in BALB/c albino mouse infected with blood trypomastigote stage of Trypanosoma cruzi assessed as change in ALT/GPT level in serum at 500 mg/kg, ip relative to control; assay type: organism-based; set-up: dose 500 mg/kg, route intraperitoneal; settings: in vivo
# Mus musculus [2] = assay: Toxicity in BALB/c albino mouse infected with blood trypomastigote stage of Trypanosoma cruzi assessed as decrease in ALT/GPT level in serum at 40 mg/kg, ip administered on day 7 to 12 post-infection measured after day 150 relative to control; assay type: organism-based; set-up: dose 40 mg/kg, route intraperitoneal; scale not given: the % may be the effect or the level left; settings: in vivo
# Mus musculus [3] = assay: Toxicity in BALB/c albino mouse infected with blood trypomastigote stage of Trypanosoma cruzi assessed as increase in AST/GOT level in serum at 25 mg/kg, ip administered on day 7 to 12 post-infection measured after day 120 relative to control; assay type: organism-based; set-up: dose 25 mg/kg, route intraperitoneal; settings: in vivo
# Mus musculus [4] = assay: Toxicity in BALB/c albino mouse infected with blood trypomastigote stage of Trypanosoma cruzi assessed as increase in LDH level in serum at 40 mg/kg, ip administered on day 7 to 12 post-infection measured after day 150 relative to control; assay type: organism-based; set-up: dose 40 mg/kg, route intraperitoneal; settings: in vivo
# Mus musculus [5] = assay: Toxicity in BALB/c albino mouse infected with blood trypomastigote stage of Trypanosoma cruzi assessed as change in creatinephophokinase-MB level in serum at 40 mg/kg, ip administered on day 7 to 12 post-infection measured after day 150 relative to control; assay type: organism-based; set-up: dose 40 mg/kg, route intraperitoneal; settings: in vivo
# Mus musculus [6] = assay: Toxicity in BALB/c albino mouse infected with blood trypomastigote stage of Trypanosoma cruzi assessed as increase in urea level in serum at 500 mg/kg, ip; assay type: organism-based; set-up: dose 500 mg/kg, route intraperitoneal; settings: in vivo
# Trypanosoma cruzi [7] = assay: Trypanocidal activity against blood trypomastigote stage of Trypanosoma cruzi infected in immunosuppressed BALB/c albino mouse chronic chagas disease model assessed as decrease in parasite burden in heart at 40 mg/kg, ip administered on day 7 to 12 post-infection measured on day 150 by PCR analysis relative to control; assay type: functional; set-up: scale not given: the % may be the effect or the level left; settings: route intraperitoneal
# Trypanosoma cruzi [8] = assay: Trypanocidal activity against blood trypomastigote stage of Trypanosoma cruzi infected in nonimmunosuppressed BALB/c albino mouse chronic chagas disease model assessed as increase in total Ig-G level at 40 mg/kg, ip administered on day 7 to 12 post-infection measured after day 150 by ELISA; assay type: functional, organism-based; set-up: dose 40 mg/kg
# Trypanosoma cruzi [9] = assay: (§1) Trypanocidal activity against blood trypomastigote stage of Trypanosoma cruzi infected in immunosuppressed BALB/c albino mouse chronic chagas disease model assessed as increase in total Ig-G level at 40 mg/kg, ip administered on day 7 to 12 post-infection measured after day 150 by ELISA; assay type: functional, organism-based; set-up: dose 40 mg/kg
# Trypanosoma cruzi [10] = assay: as §1, with “cyclophosphamide-induced reactivation of parasitemia” for “increase in total Ig-G level”, “(reference value: 98.1%)” for “by ELISA”; assay type: functional; settings: route intraperitoneal
# Trypanosoma cruzi [11] = assay: (§2) Antitrypanosomal activity against amastigote stage of Trypanosoma cruzi IRHOD/CO/2008/SN3 infected in African green monkey Vero cells assessed as reduction of amastigote number per cell at IC25 preincubated for 12 hrs followed by compound washout measured every 48 hrs for 10 days by Neubauer hemocytometric chamber analysis relative to control; assay type: functional
# Trypanosoma cruzi [12] = assay: as §2, with “decrease in infection rate” for “reduction of amastigote number per cell”; assay type: functional
# Trypanosoma cruzi [13] = assay: Antitrypanosomal activity against epimastigote stage of Trypanosoma cruzi IRHOD/CO/2008/SN3 assessed as parasite growth inhibition after 72 hrs by Neubauer hemocytometric chamber analysis; assay type: functional, organism-based; settings: IRHOD/CO/2008/SN3, 72 h
# [14] = Dissociation constant, pKa of the compound in aqueous solution; assay type: physicochemical
# Trypanosoma cruzi [15] = assay: Antitrypanosomal activity against epimastigote stage of Trypanosoma cruzi IRHOD/CO/2008/SN3 assessed as appearance of enormous reservosomes at IC25 after 72 hrs by TEM analysis; assay type: functional, organism-based
# Trypanosoma cruzi [16] = assay: Antitrypanosomal activity against epimastigote stage of Trypanosoma cruzi IRHOD/CO/2008/SN3 assessed as change in excreted succinate level at IC25 after 96 hrs by 1H NMR analysis relative to control; assay type: functional
# Trypanosoma cruzi [17] = assay: Antitrypanosomal activity against epimastigote stage of Trypanosoma cruzi IRHOD/CO/2008/SN3 assessed as change in excreted pyruvate level at IC25 after 96 hrs by 1H NMR analysis relative to control; assay type: functional
compound,measurement,setting,value
CCCCNc1c(N(C)CCCN(C)C)c(=O)c1=O,Activity,Mus musculus [1],< 10%
same,Activity,Mus musculus [2],10%
same,Activity,Mus musculus [3],10%
same,Activity,Mus musculus [4],10%
same,Activity,Mus musculus [5],< 10%
same,Activity,Mus musculus [6],30%
same,Activity,Trypanosoma cruzi [7],83.3%
same,Activity,Trypanosoma cruzi [8],Active
same,Activity,Trypanosoma cruzi [9],Active
same,Activity,Trypanosoma cruzi [10],3.1%
same,inhibition (INH),Trypanosoma cruzi [11],52%
same,inhibition (INH),Trypanosoma cruzi [12],67%
same,IC50,Trypanosoma cruzi [13],9.4 µM
same,pKa,[14],8.8
same,Activity,Trypanosoma cruzi [15],Active
same,Activity,Trypanosoma cruzi [16],-26.9%
same,Activity,Trypanosoma cruzi [17],81.5%
